The values below come from publication PMC6895199, “A new antiviral scaffold for human norovirus identified with computer-aided approaches on the viral polymerase” (Scientific Reports, 2019).

Where two headings read alike, the source gives them in different places.

For the test, the system named is HuNoV GI.1 replicon. Nature of the test: HuNoV GI replicon assay (HGT-NV cells, qRT-PCR). In kind it is cell-based, human norovirus GI.1. As to the method: Given that in this system the gene encoding for the major capsid protein is replaced by a neomycin resistance gene, no new virus particles will be produced but the non-structural proteins are expressed and the replication of the genomic RNA can be studied.
Cells and virus: MNV (virus strain MNV-1.CW1) was propagated in RAW 264.7 cells grown in DMEM (Life Technologies, Gent, Belgium) supplemented with 10% or 2% FBS, 2 mM L-glutamine, 20 mM HEPES, 0.075 g/L sodium bicarbonate, 1 mM sodium pyruvate, 100 U penicillin/mL and 100 µg/mL streptomycin at 37 °C in a humidified atmosphere of 5% CO2. The human norovirus GI.1 replicon harboring gastric tumor-1 cell line (HGT-NV) (kindly provided by Dr. Ian Goodfellow, University of Cambridge) was maintained in DMEM supplemented with 10% FBS, 2mM L-glutamine, 0.075 g/L sodium bicarbonate and 1.0 mg/ml of Geneticin (G418; Life Technologies), at 37 °C in a humidified atmosphere of 5% CO2[34].
Antiviral assay with the HGT-NV replicon: The inhibitory effect of Compounds on human norovirus replication was assessed by quantification of the levels of HuNoV GI replicon RNA and of the reference (housekeeping) gene β-actin mRNA [by quantitative reverse transcription polymerase chain reaction (qRT-PCR)]. To this end, HGT cells (2000 cells/well) were seeded in 96-well plates, in complete DMEM without the selection marker G418. Following an incubation period of 24 h, a serial dilution of rupintrivir was added to the cultures. After 72 h of incubation, cell monolayers were washed with phosphate-buffered saline (PBS) and collected for quantification of RNA load by qRT-PCR. Intracellular RNA was extracted from cells using the cell-to-cDNA lysis buffer (Ambion, Life Technologies). For detection of HuNoV GI replicon RNA, forward (5′-CCG GCT ACC TGC CCA TTC-3′), reverse (5′-CCAGATCATCCTGATCGACAAG-3′) primers and probe (5′-FAM-ACATCGCATCGAGCGAGCACGTAC-TAMRA-3′) for the neomycin gene were used. For detection of β-actin mRNA, forward (5′-GGCATCCACGAAACTACCTT-3′), reverse (5′-AGCACTGTGTTGGCGTACAG-3′) primers and probe (5′-HEX-ATCATGAAGTGTGACGTGGACATCCG-BHQ1–3′) were used. One-step qRT-PCR was performed in a 20 µL reaction mixture containing 10 µl 2X iTaq Universal SYBR® Green one step reaction mix (Bio-rad, California, USA), 5.17 µl RNAse free water, 0.5 µl of iScript reverse transcriptase (Bio-rad, California, USA), 4 µl of the template RNA and either 300 nM of HuNoV GI replicon primers and probe, 300 nM of β-actin primers and 200 nM of probe. Cycling conditions were: reverse transcription at 50 °C for 10 min, initial denaturation at 95 °C for 3 min, followed by 40 cycles of denaturation at 95 °C for 15 s, annealing and extension at 60 °C for 30 seconds (Roche Lightcycler®96, Roche Diagnostics, Belgium). To determine the relative expression levels of HuNoV GI replicon RNA, β-actin was used as a normalizer and ratios were calculated using the Pfaffl method. The Expression Ratio (HuNoV GI Replicon/β-actin) was calculated as: Expression Ratio = (E HuNoV)^ΔCT, HuNoV (CC – TC)/(Eβ-actin)^ΔCT, β-actin (CC – TC), where E HuNoV and Eβ-actin represent the amplification efficiency (E = 10^–1/slope) for the HuNoV GI replicon and β-actin qRT-PCR reactions, respectively. ΔCT, HuNoV (CC – TC) is the Ct of untreated control cells (CC) minus the Ct of cells treated with a compound concentration (TC) obtained with HuNoV GI replicon primers and probe. ΔCT, β-actin (CC – TC) is the Ct of untreated control cells (CC) minus the Ct of cells treated with a compound concentration (TC) obtained with β-actin primers and probe. Efficiency values (E HuNoV and Eβ-actin) were determined for each qRT-PCR reaction.
On the technique in general: In antiviral work, replicon cells carry a viral genome segment that copies itself.

Setting [1] is: HuNoV GI replicon in HGT-1 cells, 72 h, replicon RNA by qRT-PCR.
The mark [2] stands for this setting: Norwalk virus, HGT-1, 72 h, read-out: EC50 values (column head printed 'M'), HuNoV GI replicon in HGT-1 cells, replicon RNA by qRT-PCR.

Usually EC50 stands for the concentration that produces a half-maximal response. As to `O=C(NC(=S)Nc1ccc(N2CCN(C(=O)c3cccs3)CC2)cc1)c1sc2ccccc2c1Cl` [Compound 48, 3-Chloro-N-((4-(4-(thiophene-2-carbonyl)piperazin-1-yl)phenyl)carbamothioyl)benzo[b]thiophene-2-carboxamide, reference compound], the “EC50 values (column head printed 'M')” value under setting [1] was “do not display any significant antiviral activity”. For the same compound, the EC50 under setting [2] was over 100 µM.
For the compound `Cc1ccc(C(=O)NC(=S)Nc2ccc(N3CCN(C(=O)c4cccs4)CC3)cc2)cc1` [Compound 52, 4-Methyl-N-((4-(4-(thiophene-2-carbonyl)piperazin-1-yl)phenyl)carbamothioyl)benzamide], under setting [1], the “EC50 values (column head printed 'M')” value is “low micromolar range”. For the same compound, the half-maximal effective concentration (EC50) amounted to 6 µM under setting [2] and 6.1 ± 3.9 µM (read-out: EC50 values (column head printed 'M'), HuNoV GI replicon in HGT-1 cells, 72 h, replicon RNA by qRT-PCR).
As for `O=C(NC(=S)Nc1ccc(N2CCN(C(=O)c3nccs3)CC2)cc1)c1sc2ccccc2c1Cl` [Compound 56, 3-Chloro-N-((4-(4-(thiazole-2-carbonyl)piperazin-1-yl)phenyl)carbamothioyl)benzo[b]thiophene-2-carboxamide], the “EC50 values (column head printed 'M')” value under setting [1] is listed as “do not display any significant antiviral activity”. Moreover, the EC50 under setting [2] is over 100 µM.
